The text below walks through data of patent publication US20030114382A1, “Glycogen synthase kinase function in endothelial cells” (priority 2001, published 2003).

Structures are written as SMILES.

Test [1] deals with GSK3β phosphorylation at serine 9. Description: Immunoblot of GSK3β phosphorylation at serine 9 in HUVECs. Conditions: for serum-induced phosphorylation of GSK3β: serum-starved HUVECs, 1 hour pretreatment with agent, 10% FBS 1 hour. The class given is cell-based, human. (A western blot detects proteins with antibodies after separation by electrophoresis.)
Procedure: Cell culture and adenoviral vectors. Human umbilical vein ECs (HUVECs) were isolated as previously described (29) and cultured in EGM media (Clonetics, Walkersville, Md.). Four to six passage cells were used in this study. To examine the regulation of GSK3β phosphorylation, HUVECs were serum-starved for 15 hours, treated with the indicated agents for 1 hour, and stimulated with 10% fetal bovine serum.
Immunoblot analysis. HUVECs were washed in phosphate-buffered saline and harvested by scraping in 50 mM Tris-HCl (pH 7.2), 250 mM NaCl, 1% NP40, 0.05% SDS, 2 mM EDTA, 0.5% deoxycholic acid, 10 mM 13-glycerophosphate, 1 mM vanadate, 1 mM phenyl methyl sulfonyl fluoride (PMSF). One mini tablet of protease inhibitor cocktail (Roche, Summerville, N.J.) per 10 ml of lysis buffer, vanadate, and PMSF were added just prior to use. Protein concentration was determined with protein assay kit (Pierce, Rockford, Ill.). Protein (20 μg) was separated on SDS-polyacrylamide electrophoresis gel and transferred to a polyvinylidene difluoride membrane (Millipore, Bedford, Mass.). The membrane was blocked with T-PBS (1×PBS, 0.3% Tween-20) containing 3% dry milk and incubated with primary antibody overnight at 4° C. After three washes with T-PBS, the membrane was reblocked and incubated with secondary antibody for 1 hour at room temperature. ECL or ECL-PLUS (Amersham, Piscataway, N.J.) was used for detection. To reprobe the membrane, it was treated with Restore Western Blot stripping buffer (Pierce, Rockford, Ill.). The primary antibodies used were anti-phospho GSK-3β (Ser9) antibody (1:750 dilution, Cell Signaling Technology, Beverly, Mass.), anti-phospho Akt (Ser473) antibody (1:250 dilution, Cell Signaling Technology, Beverly, Mass.), anti-total GSK-3β antibody (1:1000 dilution, Santa Cruz, Santa Cruz, Calif.), and anti-a tubulin antibody (1:4000 dilution, Oncogene, Boston, Mass.).
For a further test, the system named is Akt phosphorylation. Briefly: Immunoblot of Akt phosphorylation in HUVECs. In kind it is cell-based, human. The following applies: for Akt phosphorylation: HUVECs, single agent; for level of Akt phosphorylation: combined administration of PD98059 and SB203480, presence or absence of PI3K inhibition.

Procedure for Akt phosphorylation: To examine the regulation of GSK3β phosphorylation, HUVECs were serum-starved for 15 hours, treated with the indicated agents for 1 hour, and stimulated with 10% fetal bovine serum.
Immunoblot analysis. HUVECs were washed in phosphate-buffered saline and harvested by scraping in 50 mM Tris-HCl (pH 7.2), 250 mM NaCl, 1% NP40, 0.05% SDS, 2 mM EDTA, 0.5% deoxycholic acid, 10 mM 13-glycerophosphate, 1 mM vanadate, 1 mM phenyl methyl sulfonyl fluoride (PMSF). One mini tablet of protease inhibitor cocktail (Roche, Summerville, N.J.) per 10 ml of lysis buffer, vanadate, and PMSF were added just prior to use. Protein concentration was determined with protein assay kit (Pierce, Rockford, Ill.). Protein (20 μg) was separated on SDS-polyacrylamide electrophoresis gel and transferred to a polyvinylidene difluoride membrane (Millipore, Bedford, Mass.). The membrane was blocked with T-PBS (1×PBS, 0.3% Tween-20) containing 3% dry milk and incubated with primary antibody overnight at 4° C. After three washes with T-PBS, the membrane was reblocked and incubated with secondary antibody for 1 hour at room temperature. ECL or ECL-PLUS (Amersham, Piscataway, N.J.) was used for detection. To reprobe the membrane, it was treated with Restore Western Blot stripping buffer (Pierce, Rockford, Ill.). The primary antibodies used were anti-phospho GSK-3β (Ser9) antibody (1:750 dilution, Cell Signaling Technology, Beverly, Mass.), anti-phospho Akt (Ser473) antibody (1:250 dilution, Cell Signaling Technology, Beverly, Mass.), anti-total GSK-3β antibody (1:1000 dilution, Santa Cruz, Santa Cruz, Calif.), and anti-a tubulin antibody (1:4000 dilution, Oncogene, Boston, Mass.). The secondary antibodies were anti-rabbit IgG/HRP conjugate or anti-mouse IgG/HRP conjugate (1:2500 dilution, Promega, San Luis Obispo, Calif.).

For the compound `O=S(=O)(NCCNC/C=C/c1ccc(Br)cc1)c1cccc2cnccc12` [H89], in test [1] (pretreatment with H89, serum-deprived HUVECs), the “induction of GSK3β phosphorylation by 8-bromo cAMP or forskolin” value is on record as “blocked”. The “serum-induced phosphorylation of GSK3β” value in test [1] was “inhibited”. Further, the Akt phosphorylation result in the test on Akt phosphorylation is reported as “promoted”.

Turning to `C[S+]([O-])c1ccc(-c2nc(-c3ccncc3)c(-c3ccc(F)cc3)[nH]2)cc1` (stereo not drawn) [SB203480], the “serum-induced phosphorylation of GSK3β” value in test [1] was “partially inhibited”. In addition, in the test with Akt phosphorylation, the Akt phosphorylation result was “not” and the “level of Akt phosphorylation” value is listed as “detectably elevated”.

With `COc1cccc(-c2cc(=O)c3ccccc3o2)c1N` [PD98059], the “serum-induced phosphorylation of GSK3β” value in test [1] is recorded as “partially inhibited”. Also, in the test on Akt phosphorylation, the Akt phosphorylation result is listed as “not” and the “level of Akt phosphorylation” value was “detectably elevated”.
